As usually defined, the Ki is the equilibrium dissociation constant of an inhibitor or competing ligand from its target. One may read the melting point as the temperature, or range, at which the solid turns liquid.

The target of data set [1] is T1, MMP-3 (Homo sapiens, UniProt P08254).
T1 construct: gift of Dr. Paul Cannon, Center for Bone and Joint Research, Palo Alto, Calif
Nature of the data set: Fluorescence enzymatic activity assay / kinetic analyses, stromelysin 1 (MMP-3). The format is biochemical. The following applies: NI = not inhibiting even at 130-330 μM.

Data set [2] has as its target T2, MMP-9 (Homo sapiens, UniProt P14780). Nature of the data set: biochemical.
The target of data set [3] is T3, MMP-1 (Homo sapiens, UniProt P03956).
T3 sequence (P03956 100-469): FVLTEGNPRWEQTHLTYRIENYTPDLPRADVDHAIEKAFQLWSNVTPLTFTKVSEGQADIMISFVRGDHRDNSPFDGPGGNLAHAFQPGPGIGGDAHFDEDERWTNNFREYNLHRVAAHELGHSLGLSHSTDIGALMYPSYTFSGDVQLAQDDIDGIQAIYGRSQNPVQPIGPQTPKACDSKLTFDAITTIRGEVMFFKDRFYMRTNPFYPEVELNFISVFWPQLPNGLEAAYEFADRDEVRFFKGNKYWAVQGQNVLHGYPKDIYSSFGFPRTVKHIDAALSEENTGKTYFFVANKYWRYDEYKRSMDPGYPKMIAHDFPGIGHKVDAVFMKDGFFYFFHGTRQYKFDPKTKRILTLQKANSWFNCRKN
Nature of the data set: Kinetic analyses, MMP-1. The format is biochemical. To be noted: NI = not inhibiting even at 130-330 μM. The protocol: The progress curves were nonlinear least squares fitted to Equation 1 (Muller-Steffner, H. M., Malver, O., Hosie, L., Oppenheimer, N. J., and Schuber, F. J. Biol. Chem. 1992, 267, 9606-9611.):
Analysis for linear competitive inhibition was performed in the following manner. […] The fluorescence versus time traces were fitted by linear regression analysis using FeliX™. The initial rates were fitted to Equation 5 (Segel, I. H. in: Enzyme Kinetics, Wiley Inc., New York, 1975, pp. 104.):
The following buffers were used in experiments with enzymes: Buffer C (50 mM HEPES at pH 7.5, 150 mM NaCl, 5 mM CaCl2, 0.02% Brij-35); buffer R (50 mM HEPES at pH 7.5, 150 mM NaCl, 5 mM CaCl2, 0.01% Brij-35, and 1% v/v Me2SO) and buffer D (50 mM Tris at pH 7.5, 150 mM NaCl, 5 mM CaCl2, and 0.02% Brij-35).

For data set [4], the target named is T4, MMP-2 (Homo sapiens, UniProt P08253).
T4 sequence (P08253 110-660): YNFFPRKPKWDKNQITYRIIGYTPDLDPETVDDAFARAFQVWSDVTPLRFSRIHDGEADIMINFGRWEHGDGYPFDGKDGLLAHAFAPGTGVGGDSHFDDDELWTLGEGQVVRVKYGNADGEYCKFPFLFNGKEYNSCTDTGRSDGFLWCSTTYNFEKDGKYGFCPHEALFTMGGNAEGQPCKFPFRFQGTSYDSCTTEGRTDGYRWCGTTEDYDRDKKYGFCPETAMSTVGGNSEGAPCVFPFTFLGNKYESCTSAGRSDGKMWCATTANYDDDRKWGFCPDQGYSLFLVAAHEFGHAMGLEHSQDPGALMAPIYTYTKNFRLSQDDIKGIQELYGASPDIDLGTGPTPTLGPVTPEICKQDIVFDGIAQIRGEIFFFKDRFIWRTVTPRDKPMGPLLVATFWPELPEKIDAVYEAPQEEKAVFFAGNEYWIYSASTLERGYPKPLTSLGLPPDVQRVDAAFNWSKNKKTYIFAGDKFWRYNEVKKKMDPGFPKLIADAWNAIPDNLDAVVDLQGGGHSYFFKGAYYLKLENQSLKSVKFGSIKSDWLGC
Nature of the data set: biochemical.

For data set [5], the target named is T5, MMP-7 (Homo sapiens, UniProt P09237).
T5 sequence (P09237 95-267): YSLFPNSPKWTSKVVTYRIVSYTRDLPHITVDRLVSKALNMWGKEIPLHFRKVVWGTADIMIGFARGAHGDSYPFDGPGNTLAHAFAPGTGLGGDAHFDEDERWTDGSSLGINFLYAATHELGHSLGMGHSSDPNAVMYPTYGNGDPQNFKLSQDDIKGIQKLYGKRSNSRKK
Nature of the data set: Fluorescence enzymatic activity assay / kinetic analyses, MMP-7. The format is biochemical. To be noted: NI = not inhibiting even at 130-330 μM.
Experimental: The enzymatic activity of MMP-2, MMP-9, and MMP-7 was monitored with the fluorescence quenched substrate MOCAcPLGLA2pr(Dnp)-AR-NH2. Fluorescence was measured with a Photon Technology International (PTI) spectrofluorometer interfaced to a Pentium computer, equipped with the RatioMaster™ and FeliX™ hardware and software, respectively. The cuvette compartment was thermostated at 25.0° C. […] Fluorescence measurements were taken every 4 s. Less than 10% hydrolysis of the fluorogenic substrate was monitored, as described by Knight.

Data set [6] has as its target T2, MMP-9. The following applies: high-affinity site for TIMPs, reported earlier (Olson et al. 1997); cited from earlier work.
The target of data set [7] is T4, MMP-2. To be noted: high-affinity site for TIMPs, reported earlier (Olson et al. 1997); cited from earlier work.

Read-outs that look alike come from different tables or passages of the source. Bounds are passed on as bounds.

T2 sequence (P14780 107-707 limits assumed): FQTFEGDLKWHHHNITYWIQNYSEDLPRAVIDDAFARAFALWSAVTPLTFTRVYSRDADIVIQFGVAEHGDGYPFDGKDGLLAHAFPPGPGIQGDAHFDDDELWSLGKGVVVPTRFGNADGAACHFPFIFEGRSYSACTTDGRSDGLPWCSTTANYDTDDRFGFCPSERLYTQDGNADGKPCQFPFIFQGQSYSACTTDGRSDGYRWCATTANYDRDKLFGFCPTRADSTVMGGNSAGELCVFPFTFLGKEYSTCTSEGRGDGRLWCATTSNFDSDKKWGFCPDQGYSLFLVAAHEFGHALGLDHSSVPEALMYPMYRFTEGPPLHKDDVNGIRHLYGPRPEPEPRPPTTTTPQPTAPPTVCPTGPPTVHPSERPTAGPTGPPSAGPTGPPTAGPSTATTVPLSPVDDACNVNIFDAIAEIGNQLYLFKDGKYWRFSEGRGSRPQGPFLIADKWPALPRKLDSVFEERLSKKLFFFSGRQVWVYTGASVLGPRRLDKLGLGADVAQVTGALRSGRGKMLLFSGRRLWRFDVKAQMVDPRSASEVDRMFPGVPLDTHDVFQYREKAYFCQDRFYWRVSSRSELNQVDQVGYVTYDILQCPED
T1 sequence (P08254 100-477): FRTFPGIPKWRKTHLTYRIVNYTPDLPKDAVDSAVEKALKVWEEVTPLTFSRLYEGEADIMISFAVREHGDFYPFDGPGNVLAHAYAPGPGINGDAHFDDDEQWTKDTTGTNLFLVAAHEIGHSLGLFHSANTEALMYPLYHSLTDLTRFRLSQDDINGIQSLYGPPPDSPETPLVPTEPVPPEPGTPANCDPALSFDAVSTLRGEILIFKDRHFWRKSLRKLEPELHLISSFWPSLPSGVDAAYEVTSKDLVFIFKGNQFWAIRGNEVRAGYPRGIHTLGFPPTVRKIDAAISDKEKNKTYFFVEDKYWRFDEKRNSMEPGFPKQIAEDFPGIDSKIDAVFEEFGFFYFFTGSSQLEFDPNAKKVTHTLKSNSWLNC

As for `O=S(=O)(CCCC1CO1)c1ccc(Oc2ccccc2)cc1` (stereo not shown) [Compound 6, 3-(4-Phenoxyphenylsulfonyl)propyloxirane], the Ki in data set [1] is more than 130 µM; in data set [2] it was 75 ± 6 µM; in data set [3] it was more than 130 µM; in data set [4] (Ki), 10.7 ± 0.6 µM; in data set [5], more than 130 µM.

Take “TIMP-1: endogenous cellular protein inhibitor of MMPs (tissue inhibitor for matrix metalloproteinases)”: the Ki in data set [6] was 0.024 ± 0.004 µM; in data set [7], 0.029 ± 0.005 µM.

Regarding `O=S(=O)(CCCC1CS1)c1ccc(Oc2ccccc2)cc1` (stereo not shown) [Compound 3, 3-(4-Phenoxyphenylsulfonyl)propylthiirane], the melting point is 75 to 76 °C. For the same molecule, the Ki in data set [1] was more than 130 µM. The same molecule registered a Ki in data set [2] of 181 ± 41 µM. The Ki in data set [3] is more than 130 µM. The Ki in data set [4] was found to be 4.3 ± 0.7 µM. The same molecule returned a Ki in data set [5] of more than 130 µM.

Take `O=S(=O)(CCC1CO1)c1ccc(Oc2ccccc2)cc1` (stereo not shown) [Compound 5, 2-(4-Phenoxyphenylsulfonyl)ethyloxirane]: the melting point was in the range of 75 to 77 °C. In data set [1], this molecule registered an inhibitory constant (Ki) of more than 130 µM. Also, in data set [2], the Ki amounted to 102 ± 2 µM. Besides, the Ki in data set [3] is more than 130 µM. In addition, in data set [4] (Ki), the affinity corresponds to a Ki of 5.1 ± 0.5 µM. In data set [5], this molecule yielded a Ki of more than 130 µM.

Consider `O=S(=O)(CC1CO1)c1ccc(Oc2ccccc2)cc1` (stereo not shown) [Compound 4, (4-Phenoxyphenylsulfonyl)methyloxirane], for which the melting point was in the range of 50 to 51 °C. Also, in data set [1], the inhibition constant Ki was more than 130 µM. For the same molecule, in data set [2], the Ki came to 186 ± 11 µM. In addition, the Ki in data set [3] was more than 130 µM. The affinity in data set [4] (Ki) corresponds to a Ki of 25 ± 2 µM. In data set [5], this molecule displayed an inhibition constant Ki of more than 130 µM.

As to `O=S(=O)(CCC1CS1)c1ccc(Oc2ccccc2)cc1` (stereo not shown) [Compound 2, 2-(4-Phenoxyphenylsulfonyl)ethylthiirane], the melting point lay within 99 to 101 °C. Besides, the inhibitory constant (Ki) in data set [1] was more than 130 µM. In data set [2], this molecule returned a Ki of 44 ± 5 µM. In data set [3], this molecule showed an inhibition constant (Ki) of more than 130 µM. The molecule further gave an inhibition constant (Ki) in data set [4] of 4.7 ± 0.7 µM. For the same molecule, the inhibition constant (Ki) in data set [5] is more than 130 µM.
